The source of these data is US20240254109A1, “SALT CONTAINING PIPERAZINE POLYCYCLIC DERIVATIVE, CRYSTAL FORM THEREOF, PREPARATION METHOD THEREFOR, AND USE THEREOF” (Shanghai Hansoh Biomedical Co., Ltd., priority 2021, published 2024).

Series [1] is described as follows: Study on the crystal form of salt of compound (crystallization with counter ion acids). Conditions: for Phenomenon: base: acid=1:1.2, 25° C.; for Phenomenon after the addition of acid / Results: volatilization method; for Phenomenon after the addition of acid: crystal form B of free base in tetrahydrofuran, base: acid=1:1.2; for Results: tetrahydrofuran volatilized at room temperature. The class given is physicochemical. As for the experimental part: To identify which counter ion acids can form crystal form of salt of compound by selecting different counter ion acids according to suitable crystallization methods.
1 mL of the solution was taken into a glass bottle, and different counter ion acids (molar reaction ratio of base: acid=1:1.2) were added, and then the glass bottle was opened at room temperature to volatile solvent. The amorphous or oily was pulped with 200 μL of ethyl acetate.
1) 10 mg of crystal form B of free base was weighed, and 200 μL of methanol solvent was added, and counter ion acid (molar reaction ratio of base: acid=1:1.2) was added respectively at 25° C.
2) 85 mg of crystal form B of free base was weighed, and ethyl acetate was added to produce a clear solution. Different counter ion acids (molar reaction ratio of base: acid=1:1.2) were added respectively at 25° C.

A short description of series [2]: Study on the salt form of compound (salt forming with counter ion acids). The series is classed as physicochemical. Conditions: for Phenomenon after the addition of acid: acid 1:1.2, room temperature. How it is done:
To identify which counter ion acids can form salts with the compound by selecting different counter ion acids.
10 mg of free base was weighed. 200 μL of tetrahydrofuran was added. Different counter ion acids were added separately at room temperature, and the solvent was volatilized to dry. If a solid was precipitated during the reaction, the suspension was centrifuged, and the resulting solid was vacuum dried at 50° C. […] The resulting suspension was centrifuged and the supernatant was removed. The solid was dried in vacuum at 50° C.
10 mg of free base was weighed, and 200 μL of acetone was added. Different counter ion acids were added separately at room temperature, and the solvent was volatilized to dry. If a solid was precipitated, the resulting solid was dried in vacuum overnight at 50° C. […] The resulting suspension was centrifuged, and the supernatant was removed. The solid was dried in vacuum at 50° C.
10 mg of free base compound was weighed, and 100 μL of organic solvent was added to the suspension state. The corresponding acid was added according to the molar ratio of 1:1.2 at room temperature, and the reaction was stirred for 4d. The reaction was centrifuged, and the resulting solid was dried in vacuum at 50° C.

Series [3] is described as follows: Pharmacokinetic assay in Balb/c mice (plasma and brain tissue). The series is classed as in vivo. The note with it: p.o. 5 mg/kg. As for the experimental part: (III). Pharmacokinetic Assay in Balb/c Mice
Balb/c mice were used as test animals. The pharmacokinetic behavior in mouse body (plasma and brain tissue) of the compounds of Examples of the present invention was studied at an oral administration dose of 5 mg/kg.
Male Balb/c mice (12 mice per group), purchased from Shanghai Jiesijie Laboratory Animal Co., LTD, with Certificate No.: SCXK (Shanghai) 2013-0006 N0.311620400001794.
The test compound was dissolved in 0.5% CMC-Na (1% Tween80) by sonication to formulate a clear solution or homogeneous suspension.
After an overnight fast, male Balb/c mice (12 mice per group) were administered p.o. with the test compound at an administration dose of 5 mg/kg and an administration volume of 10 mL/kg.
0.2 mL of blood was taken from the heart of the mouse before administration and at 1, 2, 4, 8 and 24 hours after administration, and the mice were sacrificed with CO2. The samples were stored in EDTA-K2 tubes, and centrifuged for 6 minutes at 4° C., 6000 rpm to separate the plasma. The plasma samples were stored at −80° C. Whole brain tissue was taken out, weighed, placed in a 2 mL centrifuge tube, and stored at −80° C.
1) 160 μL of acetonitrile was added to 40 μL of the plasma sample for precipitation, and then the mixture was centrifuged for 5 to 20 minutes at 3500×g.
2) 90 μL of acetonitrile containing internal standard (100 ng/mL) was added to 30 μL of the plasma and brain homogenate sample for precipitation, and then the mixture was centrifuged for 8 minutes at 13000 rpm.
3) 70 μL of water was added to 70 μL of the treated supernatant and mixed by vortex for 10 minutes. 20 μL of the supernatant was taken to analyze the concentration of the test compound by LC/MS/MS. LC/MS/MS analytical instrument: AB Sciex API 4000 Qtrap.
• Liquid chromatography condition: Shimadzu LC-20AD pump • Chromatographic column: Agilent ZORBAX XDB-C18 (50×2.1 mm, […]); Mobile phase: Eluent A was 0.1% formic acid in water, and Eluent B was acetonitrile • Flow rate: 0.4 mL/min • Elution time: 0-4.0 minutes, the eluent is as follows:
The main parameters of pharmacokinetics were calculated by WinNonlin 6.1.

[4] abbreviates: free base suspended in 100 μL Isopropanol.
Where [5] appears, read: free base suspended in 100 μL Isopropanol, acid 1:1.2, stirred 4d.

The structures appear in SMILES notation.

As to `O=C(O)/C=C/C(=O)O` [0.25M fumaric acid in ethanol], the Phenomenon entry in series [1] (solvent Isopropyl ether) is recorded as “Turbid”.

Consider `CC(=O)O` [1.0M acetic acid (in methanol)], for which, in series [1], the “Phenomenon after the addition of acid” value is on record as “Clear” and the Results entry is “Oil or gel”.

Turning to `Br` [1.0M hydrobromic acid (in methanol)], in series [1], the “Phenomenon after the addition of acid” value is “Clear” and the Results entry was “Oil or gel”.

Turning to `Cl` [1.0M hydrochloric acid (in methanol)], the Phenomenon result in series [1] (solvent 2-Butanone) is given as “Clear”; in series [1] (solvent 2-Methyl-tetrahydrofuran), “Suspension”; in series [1] (solvent Acetone), “Suspension”; in series [1] (solvent Ethanol), “Clear”; in series [1] (solvent Ethyl acetate) it was “Suspension”; in series [1] (solvent Ethyl formate), “Precipitation”. The Phenomenon result in series [1] (solvent Isopropanol), in series [1] (solvent Isopropyl acetate) and in series [1] (solvent Methyl tert-butyl ether) was “Suspension” throughout. In series [1], the “Phenomenon after the addition of acid” value is recorded as “Clear”. Further, the Results entry in series [1] is given as “Oil or gel”.

Take `CS(=O)(=O)O` [1.0M methanesulfonic acid (in ethanol)]: in series [1], the “Phenomenon after the addition of acid” value was “Clear” and the Results result is “Oil or gel”.

Regarding `CC(=O)O` [1M acetic acid in methanol], the Phenomenon result in series [1] (solvent Isopropanol) and in series [1] (solvent Isopropyl ether) was “Turbid” each time.

For the molecule `CC(=O)O` [Acetic acid], the “Phenomenon after the addition of acid” value in series [2] (setting [4]) is listed as “muddy”. The Product entry in series [2] (setting [5]) is “Salt forming”.

As to `CCN(C)C(=O)NC1CC(CCN2CCN(c3cccc4sccc34)CC2)C1` (stereo not drawn) [Example 24, 3-(3-(2-(4-(Benzo[b]thiophen-4-yl)piperazin-1-yl)ethyl)cyclobutyl)-1-ethyl-1-methylurea], the Peak time tmax stood at 1 h in series [3] (Brain) and 0.5 h in series [3] (Plasma).

Take `O=C(NC1CC(CCN2CCCN(c3cccc(Cl)c3Cl)CC2)C1)c1ccco1` (stereo not drawn) [Example 25, N-(3-(2-(4-(2,3-Dichlorophenyl)-1,4-diazepan-1-yl)ethyl)cyclobutyl)furan-2-carboxamide]: the Peak time tmax in series [3] (Brain) and in series [3] (Plasma) was 1 h each time.

As for `O=C(O)/C=C/C(=O)O` [Fumaric acid], the “Phenomenon after the addition of acid” value in series [2] (setting [4]) was “muddy”. In series [2] (setting [5]), the Product entry is on record as “Salt forming”.

`CS(=O)(=O)O` [Methanesulfonic acid (1 mol/L in EtOH)]: in series [2] (acetone volatilized to dry), the Product entry was “Gel”. Moreover, the “After adding 200 μL of ethyl acetate” value in series [2] (stirred 4 hours at room temperature) is reported as “Gel”.
